Laboratory results taken from patent US7906620B2, “Tumor associated antigen, peptides thereof, and use of same as anti-tumor vaccines” (Yeda Research and Development Co. Ltd., priority 2002, dated 2011).

What was measured:
[1] = tested on: peptide loaded on labeled RMA-S/HHD; assay: Immunogenicity of peptides in HHD mice: vaccination with peptide-loaded RMA-S/HHD/B7.1, cytolytic assay on peptide-loaded targets; type: in vivo; details: for Score: immunogenic score: ratio of specific lysis, specific peptide vs tyrosinase peptide loaded on RMA-S/HHD, average of two experiments, positive above 125%; for antigenic / immunogenic in HHD mice: mouse, in vivo
Description: FIG. 4 is a graph of the results of in vitro cytolytic assays. Seven peptides are immunogenic. Peptides were loaded on RMA-S/HHD/B7.1, washed and irradiated. HHD mice were immunized three times as described in the materials and methods section in Example 1. In vitro cytolytic assays were performed on the relevant peptide as target and on an irrelevant peptide. The score was deduced from the ratio of the specific lysis that were obtained. The positive peptides (above 125%) are marked by arrows. Peptides 1-6, 3-5 and 3-7 are derived from “Human 1-8D gene”.
Vaccination. HHD mice were immunized i.p. 3 times at 7-day intervals with 2×10^6 irradiated (5000 rad) tumor cells, or irradiated peptide-loaded RMA-S/HHD/B7.1 transfectants. Spleens were removed on day 10 after the last immunization, and splenocytes were restimulated in vitro, either with irradiated tumor cells or with one third of the lymphocytes pre-pulsed with 100 μM synthetic peptides in opti-MEM (Life Technologies) for 2 hr at 37° C., 5% CO2. Restimulated lymphocytes were cultured in RPMI-HEPES medium containing 10% FCS, 2 mM glutamine, combined antibiotics, 1 mM sodium pyruvate, 25 mM HEPES, 5×10^−5M PME and 1% NEAA for 5 days. Viable cells (effectors) were separated by Lympholyte-M (Cedarlane, Hornby, Canada) gradient, resuspended and admixed at different ratios with 5,000 ^35S-methionine-labeled target cells. Cytolytic assays were carried out as described previously in Carmon et al., 2000. Extracts of tumor peptides or normal colon peptides were prepared from a pool of 6 post-surgical colon carcinoma specimens as described before Carmon et al., 2000.
The antigenic peptides were tested for their specific immunogenicity in HHD mice. HHD mice were vaccinated with RMA-S/HHD/B7.1 cells loaded with each of the peptides (listed in Table 3), their spleens were removed, and resensitized in vitro with synthetic peptides for four days. On the fifth day, a cytolytic assay was performed on two targets, either the peptide itself loaded on labeled RMA-S/HHD or the tyrosinase peptide as a negative control. The ratio of specific lysis between specific and tyrosinase peptides was defined as “immunogenic score”. This experiment was repeated twice and the average score of each of the antigenic peptides is specified (Table 3 and FIG. 4). The horizontal line in FIG. 4 represents the limit of 95% significance as defined by assuming normal distribution of scores.

LNCaP = assay: Lysis of LNCaP tumor cells by human anti-peptide CTL; type: cell-based; details: LNCaP high and low HLA expressors as targets
Source text: FIGS. 18A-18E are graphs showing that human anti-peptide CTL from a healthy donor kills LNCaP tumor cells. PBMC from a healthy donor (FIGS. 18A-18C) or a CaP patient (FIGS. 18D-18E) were stimulated with PAP-3 (FIGS. 18A, 18D), STEAP-3 (FIGS. 18B, 18E) or PSGR-1 (FIG. 18C) as described. LNCaP/CRL1740 (LNCaP high in HLA-A2.1 expression), LNCaP/CRL10995 (LNCaP low in HLA-A2.1 expression) and PC3 (negative for HLA-A2.1) served as targets in CTL assays.
(§1) When human PBMC are stimulated in vitro by PAP-3 and STEAP-3 peptides, the resulting CTL can lyse target cells (T2, EL4/HHD) pulsed with PAP-3, STEAP-3 or PSGR-1 and PSGR-6 peptides. (FIGS. 15 and 16). Here, these findings were expanded and peripheral blood of three healthy and two CaP individuals was tested for the existence of CTL precursors against PAP-3, STEAP-3 and PSGR-1 peptides. Leukopheresis products of the donors were obtained from Barzilai Medical Center (Ashkelon, Israel) according to Declaration of Helsinki Principles. PBMC were isolated by centrifugation on Ficoll-Plaque Plus gradients (Amersham, Sweden). In vitro priming of CTL was done over autologous DC that were prepared from monocytes by IL-4 and GM-CSF treatment and matured with a IL-1β, IL-6, TNF-α and PGE2 cocktail. DC were pulsed with synthetic peptides and PBMC were supplemented with IL-7. Two days later, IL-2 was added and renewed every three days. Two additional re-stimulations were done every 7 days over peptide pulsed monocytes. Seven days after the third stimulation, lymphocytes were harvested and a cytolytic assay was performed using relevant/non-relevant peptide pulsed or non-pulsed T2 cells (FIGS. 17A-17C) and LNCaP (high and low HLA expressors) cells as targets (FIGS. 18A-18E). […] Monitoring of HLA-A2-peptide specific CD8+ cells for PAP-3 and STEAP-3 was also performed by MHC-peptide tetramers (tetramers of recombinant HLA-A2.1-beta2 microglobulin single chain with peptides were prepared in collaboration with Dr Yoram Reiter, Technion, Haifa). […]

T2 cells = assay: In vitro priming of human CTL with prostate peptides, cytolytic assay on peptide pulsed T2 cells; type: cell-based; details: three healthy and two CaP individuals
Description: FIGS. 16A-16D are graphs showing in vitro priming of human CTLs. PBMC of leukopheresis samples were isolated and in vitro CTL primed with peptide pulsed autologous DC. PBMC were supplemented with IL-7 and two days later IL-2 was added and renewed every three days. Additional two cycles of re-stimulation were done every 7 days over peptide pulsed monocytes. Seven days after the last stimulation cytolytic assay was performed using peptide pulsed or non-pulsed T2 cells as target. In FIG. 16A, PBMC derived from CaP individual (donor A) were primed and re-stimulated with STEAP-3 pulsed DC/monocytes. Target cells: relevant (STEAP-3) and non-relevant peptide (HIV-derived, PAP-3) pulsed T2 cells. In FIG. 16B, PBMC derived from healthy individual (donor B) were primed and restimulated with PAP-3 pulsed DC/monocytes. Target cells: relevant (PAP-3) and non-relevant peptide (HIV-derived, STEAP-3) pulsed T2 cells. PBMC derived from healthy individual (donor C) were primed and restimulated with either PAP-3 (C-1; FIG. 16C) or STEAP-3 (C-2; FIG. 16D) pulsed DC/monocytes. Relevant (PAP-3 or STEAP-3) peptide pulsed and non-pulsed T2 cells were used as targets.
FIGS. 17A-17C are graphs showing peptide specific CTL induced in human PBMC by PAP-3 (FIG. 17A), STEAP-3 (FIG. 17B), and PSGR-1 (FIG. 17C). PBMC from a healthy donor were stimulated by peptide pulsed DC as described and CTL activity was tested on homologous peptide pulsed T2 target cells (HLA-A2 lymphoma, TAP deficient).
Finally, peripheral blood of two healthy (donors B, C) and one CaP (donor A) individuals were tested for the existence of CTL precursors (FIGS. 16A-16D). Leukopheresis products of the donors were obtained from Barzilai Medical Center (Ashkelon, Israel) according to Declaration of Helsinki Principles. PBMC were isolated by centrifugation on Ficoll-Plaque Plus gradients (Amersham, Sweden). In vitro priming of CTL was done over autologous DC that were prepared from monocytes by IL-4 and GM-CSF treatment and maturated with a IL-1β, IL-6, TNF-α and PGE2 cocktail. DC were pulsed with synthetic peptides and PBMC were supplemented with IL-7. Two days later, IL-2 was added and renewed every three days. Two additional re-stimulations were done every 7 days over peptide pulsed monocytes. Seven days after the third stimulation, lymphocytes were harvested and a cytolytic assay was performed using relevant/non-relevant peptide pulsed or non-pulsed at all T2 cells.
as §1

ALGFYPAEI (listed as Homo sapiens) [Peptide 3-3]
Score [1]: 93.6

ALPDETEVV (listed as Homo sapiens) [Peptide 2-1, Human osteonectin 23-31]
Score [1]: 115.0

ALRGHSHFV (listed as Homo sapiens) [Peptide 1-8, Human MHC protein homologous to chicken B complex 58-66]
Score [1]: 106.7

DLQETLVKI (listed as Homo sapiens) [Peptide 3-6, Human chaperonin like protein 316-324]
Score [1]: 84.6

FELAAESDV (listed as Homo sapiens) [Peptide 1-4, Transforming growth factor beta induced gene 380-338]
Score [1]: 83.3

GQQSTVSDV (listed as Homo sapiens) [Peptide 1-5]
Score [1]: 125.0

ILLVMGVDV (listed as Homo sapiens) [PSGR-1, PSGR start position 202]
lysis of tumor cells expressing endogenously processed proteins (LNCaP): lyse tumor cells
activation of CTL precursors in PBMC derived from CaP patients and healthy donors (T2 cells): activated CTL precursors

IPMGKSMLV (listed as Homo sapiens) [Peptide 2-2, Insulin like growth factor II 3-11]
Score [1]: 9.5

IQQYGHQEV (listed as Homo sapiens) [Peptide 1-7]
Score [1]: 94.6

IVDDITYNV (listed as Homo sapiens) [Peptide 1-11]
Score [1]: 126.8
antigenic / immunogenic in HHD mice [1]: antigenic and immunogenic

KIEDNNTLV (listed as Homo sapiens) [Peptide 2-3, Human ribosomal protein L23a mRNA 89-97]
Score [1]: 150.0
antigenic / immunogenic in HHD mice [1]: antigenic and immunogenic

LLVIIPVLV (listed as Homo sapiens) [Peptide 1-2, Human 1-8D gene from interferon inducible gene 119-127]
Score [1]: 108.3

MLTINGKAI (listed as Homo sapiens) [Peptide 3-1, Transforming growth factor beta induced gene 343-351]
Score [1]: 147.1
antigenic / immunogenic in HHD mice [1]: antigenic and immunogenic

SIAEFFSDI (listed as Homo sapiens) [Peptide 3-2, Human TB2 gene 105-113]
Score [1]: 143.2
antigenic / immunogenic in HHD mice [1]: antigenic and immunogenic

TILTAVLLV (listed as Homo sapiens) [Peptide 1-10, Human defensin 6 5-13]
Score [1]: 97.5

TLQLSRAPV (listed as Homo sapiens) [Peptide 1-12, Human mRNA for dipeptidase 223-231]
Score [1]: 107.9

VIATNILLV (listed as Homo sapiens) [Peptide 1-9, Human chaperonin-like protein 368-346]
Score [1]: 69.7

VLYDELKKV (listed as Homo sapiens) [Peptide 1-1, Human ADP/ATP translocase 253-261]
Score [1]: 121.7

VQPQSPVAV (listed as Homo sapiens) [Peptide 1-3]
Score [1]: 112.0

WVVYGVFSI (listed as Homo sapiens) [Peptide 3-4, Human TB2 gene 98-106]
Score [1]: 90.9
